Converted amounts (≈) assume the structure as drawn. Like-named read-outs stand apart in the source and are kept apart here.
How the values were obtained:
Experiment in all cases: in vitro antibacterial activity, microtitration dilution method
Assay type in all cases: cell-based
[1] = system: Escherichia coli Vogel; settings: read-out: minimal inhibitory concentration (MIC)
Text: (§1) The compounds of the invention display antibacterial activity when tested by the microtitration dilution method as described in Heifetz, et al, Antimicr. Agents & Chemoth., 6, 124 (1974), which is incorporated herein by reference.
(§2) By use of the above reference method, the following minimum inhibitory concentration value (MICs in μg/ml) shown in Table I were obtained for representative compounds of the invention.

[2] = system: Enterobacter cloacae MA 2646
Text: as §1, §2

[3] = system: Proteus rettgeri M 1771; settings: Providencia rettgeri, M1771, read-out: minimal inhibitory concentration (MIC)
Text: as §1, §2

[4] = system: Staphylococcus aureus H 228
Text: (§3) Agents & Chemoth., 6, 124 (1974), which is incorporated herein by reference.

[5] = system: Staphylococcus aureus UC-76
Text: as §3

[6] = system: Pseudomonas aeruginosa UI-18
Text: as §3

[7] = system: Klebsiella pneumoniae MGH-2
Text: as §3

[8] = system: Streptococcus pyogenes C-203
Text: as §3

[9] = system: Streptococcus pneumoniae SV-1
Text: as §3

[10] = system: Streptococcus faecalis MGH-2; settings: Enterococcus faecalis
Text: as §3

[11] = MA2646, in vitro, Enterobacter cloacae MA 2646, read-out: minimal inhibitory concentration (MIC)
[12] = Staphylococcus aureus, H228, read-out: minimal inhibitory concentration (MIC)
[13] = UC76, in vitro, Staphylococcus aureus UC-76, read-out: minimal inhibitory concentration (MIC)
[14] = UI18, in vitro, Pseudomonas aeruginosa UI-18, read-out: minimal inhibitory concentration (MIC)
[15] = MGH2, in vitro, Klebsiella pneumoniae MGH-2, read-out: minimal inhibitory concentration (MIC)
[16] = C203, in vitro, Streptococcus pyogenes C-203, read-out: minimal inhibitory concentration (MIC)
[17] = SV1, in vitro, Streptococcus pneumoniae SV-1, read-out: minimal inhibitory concentration (MIC)
[18] = MGH2, read-out: minimal inhibitory concentration (MIC)
[19] = MGH2, in vitro, Streptococcus faecalis MGH-2, read-out: minimal inhibitory concentration (MIC)
[20] = Enterobacter cloacae, MA2646, read-out: minimal inhibitory concentration (MIC)
[21] = H228, in vitro, Staphylococcus aureus H 228, read-out: minimal inhibitory concentration (MIC)
[22] = Pseudomonas aeruginosa, UI18, read-out: minimal inhibitory concentration (MIC)
[23] = Klebsiella pneumoniae, MGH2, read-out: minimal inhibitory concentration (MIC)
[24] = Staphylococcus aureus, UC76, read-out: minimal inhibitory concentration (MIC)

Row | Structure (SMILES) | MIC [1] [µg/mL] | MIC [2, 11] [µg/mL] | MIC [3] [µg/mL] | MIC [4, 12] [µg/mL] | MIC [5, 13] [µg/mL] | MIC [6, 14] [µg/mL] | MIC [7, 15] [µg/mL] | MIC [8, 16] [µg/mL] | MIC [9, 17] [µg/mL] | MIC [10, 18] [µg/mL] | MIC [10, 19] [µg/mL] | MIC [2, 20] [µg/mL] | MIC [4, 21] [µg/mL] | MIC [6, 22] [µg/mL] | MIC [7, 23] [µg/mL] | MIC ([9]; Streptococcus pneumoniae, SV1, read-out: minimal inhibitory concentration (MIC)) [µg/mL] | MIC [5, 24] [µg/mL] | MIC ([8]; Streptococcus pyogenes, C203, read-out: minimal inhibitory concentration (MIC)) [µg/mL]
1 | CCn1cc(C(=O)O)c(=O)c2cc(F)c(N3CC4CCCC3CN4)c(F)c21 (stereo not drawn) [Example 1, 7-(6,8-Diazabicyclo[3.2.2]non-6-yl)-1-ethyl-6,8-difluoro-1,4-dihydro-4-oxo-3-quinolinecarboxylic acid] | 0.4 (≈ 1.06 µM) | 0.4 (≈ 1.06 µM) | 0.8 (≈ 2.12 µM) | 0.2 (≈ 0.53 µM) | 0.05 (≈ 0.132 µM) | 3.1 (≈ 8.21 µM) | 0.8 (≈ 2.12 µM) | 1.6 (≈ 4.24 µM) | 0.8 (≈ 2.12 µM) | 0.8 (≈ 2.12 µM) | – | – | – | – | – | – | – | –
2 | O=C(O)c1cn(C2CC2)c2c(Cl)c(N3CC4CCCC3CN4)c(F)cc2c1=O (stereo not drawn) [Example 8, 8-Chloro-1-cyclopropyl-7-(6,8-diazabicyclo[3.2.2]non-6-yl)-6-fluoro-1,4-dihydro-4-oxo-3-quinolinecarboxylic acid] | 0.2 (≈ 0.493 µM) | 0.2 (≈ 0.493 µM) | 0.4 (≈ 0.986 µM) | 0.2 (≈ 0.493 µM) | 0.05 (≈ 0.123 µM) | 0.8 (≈ 1.97 µM) | 0.2 (≈ 0.493 µM) | 0.1 (≈ 0.246 µM) | 0.1 (≈ 0.246 µM) | – | 0.2 (≈ 0.493 µM) | – | – | – | – | – | – | –
3 | O=C(O)c1cn(C2CC2)c2cc(N3CC4CCCC3CN4)c(F)cc2c1=O (stereo not drawn) [Example 7, 1-Cyclopropyl-7-(6,8-diazabicyclo[3.2.2]non-6-yl)-6-fluoro-1,4-dihydro-4-oxo-3-quinolinecarboxylic acid] | 0.05 (≈ 0.135 µM) | – | 0.4 (≈ 1.08 µM) | – | 0.025 (≈ 0.0673 µM) | – | – | 0.05 (≈ 0.135 µM) | 0.05 (≈ 0.135 µM) | – | 0.1 (≈ 0.269 µM) | 0.05 (≈ 0.135 µM) | 0.1 (≈ 0.269 µM) | 0.4 (≈ 1.08 µM) | 0.1 (≈ 0.269 µM) | – | – | –
4 | CCN[C@H]1C[C@H]2CC[C@@H](C1)N2c1cc2c(cc1F)c(=O)c(C(=O)O)cn2C1CC1 [Example 5f, 1-cyclopropyl-7-[3-endo(ethylamino)-8-azabicyclo[3.2.1]oct-8-yl]-6-fluoro-1,4-dihydro-4-oxo-3-quinolinecarboxylic acid] | 1.6 (≈ 4.01 µM) | 1.6 (≈ 4.01 µM) | 12.5 (≈ 31.3 µM) | – | 0.8 (≈ 2 µM) | 6.3 (≈ 15.8 µM) | 3.1 (≈ 7.76 µM) | 1.6 (≈ 4.01 µM) | – | – | 3.1 (≈ 7.76 µM) | – | 3.1 (≈ 7.76 µM) | – | – | 1.6 (≈ 4.01 µM) | – | –
5 | CCN[C@@H]1C[C@H]2CC[C@@H](C1)N2c1nc2c(cc1F)c(=O)c(C(=O)O)cn2C1CC1 [Example 5a, 1-cyclopropyl-7-[3-exo(ethylamino)-8-azabicyclo[3.2.1]oct-8-yl]-6-fluoro-1,4-dihydro-4-oxo-1,8-naphthyridine-3-carboxylic acid] | 0.2 (≈ 0.499 µM) | 0.8 (≈ 2 µM) | 3.1 (≈ 7.74 µM) | 0.2 (≈ 0.499 µM) | – | 1.6 (≈ 4 µM) | 0.4 (≈ 0.999 µM) | 0.4 (≈ 0.999 µM) | 0.2 (≈ 0.499 µM) | – | 0.4 (≈ 0.999 µM) | – | – | – | – | – | 0.2 (≈ 0.499 µM) | –
6 | CCN[C@@H]1C[C@H]2CC[C@@H](C1)N2c1cc2c(cc1F)c(=O)c(C(=O)O)cn2C1CC1 [Example 5e, 1-cyclopropyl-7-[3-exo(ethylamino)-8-azabicyclo[3.2.1]oct-8-yl]-6-fluoro-1,4-dihydro-4-oxo-3-quinolinecarboxylic acid] | 0.4 (≈ 1 µM) | 0.8 (≈ 2 µM) | 3.1 (≈ 7.76 µM) | – | – | 3.1 (≈ 7.76 µM) | 0.8 (≈ 2 µM) | 0.4 (≈ 1 µM) | 0.2 (≈ 0.501 µM) | – | 0.4 (≈ 1 µM) | – | 0.4 (≈ 1 µM) | – | – | – | 0.2 (≈ 0.501 µM) | –
7 | O=C(O)c1cn(C2CC2)c2c(F)c(N3CC4CCCC3CN4)c(F)cc2c1=O (stereo not drawn) [Example 2, 1-Cyclopropyl-7-(6,8-diazabicyclo[3.2.2]non-6-yl)-6,8-difluoro-1,4-dihydro-4-oxo-3-quinolinecarboxylic acid] | 0.4 (≈ 1.03 µM) | 0.1 (≈ 0.257 µM) | 0.4 (≈ 1.03 µM) | – | 0.05 (≈ 0.128 µM) | 0.8 (≈ 2.05 µM) | 0.2 (≈ 0.514 µM) | – | 0.2 (≈ 0.514 µM) | – | 0.2 (≈ 0.514 µM) | – | 0.05 (≈ 0.128 µM) | – | – | – | – | 0.8 (≈ 2.05 µM)
8 | CCN[C@H]1C[C@H]2CC[C@@H](C1)N2c1c(F)cc2c(=O)c(C(=O)O)cn(C3CC3)c2c1F [Example 5c, 1-cyclopropyl-7-[3-endo(ethylamino)-8-azabicyclo[3.2.1]oct-8-yl]-6,8-difluoro-1,4-dihydro-4-oxo-3-quinolinecarboxylic acid] | 0.4 (≈ 0.958 µM) | 0.4 (≈ 0.958 µM) | 3.1 (≈ 7.43 µM) | – | – | 3.1 (≈ 7.43 µM) | 0.8 (≈ 1.92 µM) | 0.4 (≈ 0.958 µM) | 0.4 (≈ 0.958 µM) | 0.8 (≈ 1.92 µM) | – | – | 0.8 (≈ 1.92 µM) | – | – | – | 0.2 (≈ 0.479 µM) | –
9 | O=C(O)c1cn(C2CC2)c2nc(N3CC4CCCC3CN4)c(F)cc2c1=O (stereo not drawn) [Example 3, 1-cyclopropyl-7-(6,8-diazabicyclo[3.2.2]non-6-yl)-6-fluoro-1,4-dihydro-4-oxo-1,8-naphthyridine-3-carboxylic acid] | 0.03 (≈ 0.0806 µM) | – | 0.4 (≈ 1.07 µM) | 0.2 (≈ 0.537 µM) | 0.1 (≈ 0.269 µM) | – | – | 0.1 (≈ 0.269 µM) | 0.05 (≈ 0.134 µM) | – | 0.2 (≈ 0.537 µM) | 0.05 (≈ 0.134 µM) | – | 0.4 (≈ 1.07 µM) | 0.1 (≈ 0.269 µM) | – | – | –
10 | CCN[C@H]1C[C@H]2CC[C@@H](C1)N2c1nc2c(cc1F)c(=O)c(C(=O)O)cn2C1CC1 [Example 5b, 1-Cyclopropyl-7-[3-endo(ethylamino)-8-azabicyclo[3.2.1]oct-8-yl]-6-fluoro-1,4-dihydro-4-oxo-1,8-naphthyridine-3-carboxylic acid] | 0.4 (≈ 0.999 µM) | 0.8 (≈ 2 µM) | 3.1 (≈ 7.74 µM) | – | 0.4 (≈ 0.999 µM) | 3.1 (≈ 7.74 µM) | 0.8 (≈ 2 µM) | 0.4 (≈ 0.999 µM) | 0.4 (≈ 0.999 µM) | 0.8 (≈ 2 µM) | – | – | 0.8 (≈ 2 µM) | – | – | – | – | –
11 | CCN[C@@H]1C[C@H]2CC[C@@H](C1)N2c1c(F)cc2c(=O)c(C(=O)O)cn(C3CC3)c2c1F [Example 5d, 1-cyclopropyl-7-[3-exo(ethylamino)-8-azabicyclo[3.2.1]oct-8-yl]-6,8-difluoro-1,4-dihydro-4-oxo-3-quinolinecarboxylic acid] | 0.2 (≈ 0.479 µM) | 0.2 (≈ 0.479 µM) | 1.6 (≈ 3.83 µM) | 0.2 (≈ 0.479 µM) | 0.1 (≈ 0.24 µM) | 3.1 (≈ 7.43 µM) | 0.4 (≈ 0.958 µM) | 0.1 (≈ 0.24 µM) | 0.1 (≈ 0.24 µM) | – | 0.2 (≈ 0.479 µM) | – | – | – | – | – | – | –
12 | CCn1cc(C(=O)O)c(=O)c2cc(F)c(N3CC4CCCC3CN4C)c(F)c21 (stereo not drawn) [Example 4, 1-Ethyl-6,8-difluoro-1,4-dihydro-7-(8-methyl-6,8-diazabicyclo[3.2.2]non-6-yl)-4-oxo-3-quinolinecarboxylic acid] | 0.8 (≈ 2.04 µM) | 1.6 (≈ 4.09 µM) | 6.3 (≈ 16.1 µM) | 0.2 (≈ 0.511 µM) | 0.1 (≈ 0.255 µM) | 12.5 (≈ 31.9 µM) | 1.6 (≈ 4.09 µM) | 1.6 (≈ 4.09 µM) | 0.8 (≈ 2.04 µM) | 0.8 (≈ 2.04 µM) | – | – | – | – | – | – | – | –
